{"source": "paper PMC12993615", "about": "(The journal of pain, 2024)", "key": {"[1]": {"target": "δ [DOP; delta opioid receptor] (Homo sapiens, UniProt P41143)", "sequence (P41143 whole entry)": "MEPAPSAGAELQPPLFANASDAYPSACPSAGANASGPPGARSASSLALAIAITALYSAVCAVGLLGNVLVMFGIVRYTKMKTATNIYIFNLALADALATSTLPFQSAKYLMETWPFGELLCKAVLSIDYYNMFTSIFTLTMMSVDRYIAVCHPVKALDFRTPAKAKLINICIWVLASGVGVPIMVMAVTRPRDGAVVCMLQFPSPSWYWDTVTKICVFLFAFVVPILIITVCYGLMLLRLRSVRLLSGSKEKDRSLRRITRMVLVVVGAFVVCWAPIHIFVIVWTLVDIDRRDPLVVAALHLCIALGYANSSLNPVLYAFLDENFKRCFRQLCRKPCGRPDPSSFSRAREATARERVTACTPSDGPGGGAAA", "experiment": "Secondary pharmacology panel (87 targets)", "type": "binding", "conditions": "test concentration 30 µM", "description": "(§1) Findings were considered significant if ≥50% inhibition of ligand binding or ≥50% stimulation/inhibition were shown in biochemical assays. Those receptors with values ≥50% were further evaluated for binding and functional half-maximal inhibitory concentrations (IC50)."}, "[2]": {"target": "T1, CCK1 [cholecystokinin A receptor] (Homo sapiens, UniProt P32238)", "T1 sequence (P32238 1-428)": "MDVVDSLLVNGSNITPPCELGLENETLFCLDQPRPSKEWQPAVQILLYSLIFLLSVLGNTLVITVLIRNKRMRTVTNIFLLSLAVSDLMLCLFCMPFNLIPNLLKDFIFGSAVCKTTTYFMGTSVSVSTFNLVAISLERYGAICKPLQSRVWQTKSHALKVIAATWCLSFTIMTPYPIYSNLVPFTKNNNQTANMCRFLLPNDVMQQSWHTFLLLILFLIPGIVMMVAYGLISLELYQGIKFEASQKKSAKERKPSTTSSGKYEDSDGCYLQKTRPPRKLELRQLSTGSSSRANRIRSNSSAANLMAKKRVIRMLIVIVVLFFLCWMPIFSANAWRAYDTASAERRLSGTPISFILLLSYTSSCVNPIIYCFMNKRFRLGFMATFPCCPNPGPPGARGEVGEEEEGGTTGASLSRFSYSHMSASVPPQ", "experiment": "Secondary pharmacology panel (87 targets)", "type": "binding", "conditions": "test concentration 30 µM", "description": "as §1"}, "[3]": {"target": "T2, CCK2 [cholecystokinin B receptor] (Homo sapiens, UniProt P32239)", "T2 sequence (P32239 1-447)": "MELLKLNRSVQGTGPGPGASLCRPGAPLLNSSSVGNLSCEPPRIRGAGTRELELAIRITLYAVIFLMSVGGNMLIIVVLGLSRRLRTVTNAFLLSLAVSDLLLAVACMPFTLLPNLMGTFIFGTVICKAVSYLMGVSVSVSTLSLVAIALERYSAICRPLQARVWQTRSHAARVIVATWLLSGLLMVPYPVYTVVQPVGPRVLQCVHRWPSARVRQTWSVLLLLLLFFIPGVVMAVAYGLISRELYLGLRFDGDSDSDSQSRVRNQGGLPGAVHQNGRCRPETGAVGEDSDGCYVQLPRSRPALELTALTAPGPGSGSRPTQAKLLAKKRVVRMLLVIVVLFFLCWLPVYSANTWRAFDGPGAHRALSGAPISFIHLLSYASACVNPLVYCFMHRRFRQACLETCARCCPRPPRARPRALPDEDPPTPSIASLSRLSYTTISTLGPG", "experiment": "Secondary pharmacology panel (87 targets)", "type": "binding", "conditions": "test concentration 30 µM", "description": "as §1"}, "[4]": {"experiment": "Plasma concentration in PKPD time course (established OIPN)", "type": "in vivo, male Sprague Dawley rats", "conditions": "OIPN rats, single 100 mg/kg PO", "method": "The doses were based on previous studies that used these antagonists in animal models of CIPN.[33]–[37]\nQuantitative bioanalysis by LC-MS/MS of plasma and spinal cord levels of ART26.12 was carried out by a commercial supplier (Sygnature Discovery, Nottingham, UK)."}, "[5]": {"experiment": "Terminal plasma and brain concentrations, OIPN treatment study", "type": "in vivo", "conditions": "after 7 days dosing 25 mg/kg BID", "description": "Body weight was monitored throughout the study, and terminal plasma and whole brain samples were taken for bioanalysis."}, "FABP4": {"target": "T3, FABP4 (Homo sapiens, UniProt P15090)", "T3 construct": "purchased Cayman Chemical", "T3 sequence (P15090 whole entry, species assumed)": "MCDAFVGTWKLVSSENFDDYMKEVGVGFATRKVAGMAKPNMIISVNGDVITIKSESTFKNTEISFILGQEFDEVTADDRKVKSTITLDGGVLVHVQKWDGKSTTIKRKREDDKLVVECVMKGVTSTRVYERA", "experiment": "FABP4 binding, commercially available kit (Cayman Chemical)", "conditions": "commercial kit", "method": "Purified FABPs were incubated with 11-(dansylamino)undecanoic acid (DAUDA) (FABP3, FABP5) or 8-anilino-1-naphthalenesulfonic acid (ANS) (FABP7) in the presence or absence of FABP inhibitors (.01–200 μM) in the binding assay buffer. FABP4 binding was assessed using a commercially available kit (Cayman Chemical, Ann Arbor). In all cases, arachidonic acid (10 μM) was included to account for maximal probe displacement. Loss of fluorescence intensity was monitored with an F5 Filtermax Multi-Mode Microplate Reader (Molecular Devices, Sunnyvale) using the following excitation and emission wavelengths (DAUDA: ex./em.= 360/535 nm; ANS: ex./em. = 360/465 nm). Following background subtraction, the fluorescence intensity values were normalised and analyzed via a one-site binding model using the GraphPadPrism (version 9.2). Ki values were determined using the following equation: Ki= IC50/(1 + ([Probe]/Kd)."}, "[6]": {"tested_on": "oxaliplatin-induced thermal hyperalgesia", "experiment": "Prevention of OIPN, cold plate latency", "type": "in vivo, male Sprague Dawley rats", "conditions": "25 mg/kg BID, P < .001", "method": "Male Sprague Dawley rats (150–210 g) were housed in groups of 4 in intra-ventilated Perspex home cages. Humidity, temperature (21 ± 1 °C), and lighting (light-dark cycle of 12:12 hours) were controlled and maintained in the home cages, with food and water available ad libitum. Rats acclimatised to the home cages for at least 1 week. All experiments were carried out according to the Animals (Scientific Procedures) Act, 1986 (U.K. Government Home Office). The study was performed under the Home Office project licence number PP0847012. OIPN was established with a single dose of OXA (10 mg/kg, IP).\nPain measurements were made on Days 5/6 (when neuropathy has normally developed) and at the end of the study. […] Terminal plasma samples were taken for bioanalysis and proteomics (Somalogic). […]\nThermal hyperalgesia was assessed using a cold plate (Bioseb, France) set at a fixed temperature of 15 °C. Latency to the first escape behaviour from the plate was measured indicating discomfort to the thermal stimulation. […]\nTo acquire baseline readings, pain behaviour was assessed on 3 consecutive days (Days −3, −2, −1). […] NPB expressed as a percentage change from HBL was calculated as follows (HBL-NPB)/HBL*100. […]"}, "[7]": {"tested_on": "CCK1, CCK2, δ (DOP), cathepsin G", "experiment": "Subsequent functional assessment of secondary pharmacology hits", "type": "biochemical", "description": "as §1"}, "in vivo": {"experiment": "in vivo", "conditions": "both sexes, beagle, dog, po, 500 mg/kg", "description": "Examined parameters to assess toxicity included clinical observations, mortality and moribundity cheques, body weights, food consumption, electrocardiogram, TK, clinical chemistry, haematology, coagulation, urinalysis, gross pathology, organ weights, and histopathology."}}}
{"molecule": "COc1ccccc1[C@@H]1[C@H](C(=O)O)[C@@H](c2ccccc2OC)[C@H]1C(=O)OC1Cc2ccccc2C1", "note": "[ART26.12, (+)–3-Indan-2-yloxycarbonyl-2,4-bis(2-methoxyphenyl)cyclobutanecarboxylic acid]", "values": [{"measurement": "binding to δ (DOP) in secondary pharmacology screening", "setting": "[1]", "result": "greater than 50%"}, {"measurement": "binding to CCK1 in secondary pharmacology screening", "setting": "[2]", "result": "greater than 50%"}, {"measurement": "binding to CCK2 in secondary pharmacology screening", "setting": "[3]", "result": "greater than 50%"}, {"measurement": "peak total plasma concentration", "setting": "[4]; mean ± SEM", "result": "122 ± 13", "unit": "µM"}, {"measurement": "Tmax", "setting": "[4]; male, Sprague Dawley, rat, plasma, read-out: time of peak plasma concentration", "result": "~3", "unit": "h"}, {"measurement": "average total plasma concentration", "setting": "[5]", "result": "6.5 ± .6 µM"}, {"measurement": "total brain concentration", "setting": "[5]", "result": ".15 ± .02 µM"}, {"measurement": "Ki", "setting": "FABP4", "result": "> 100", "unit": "µM"}, {"measurement": "cold plate latencies on Day 14 versus vehicle", "setting": "[6]", "result": "significantly higher cold plate latencies than the vehicle group"}, {"measurement": "functional assessment at the 4 off-targets", "setting": "[7]", "result": "not physiologically relevant"}, {"measurement": "NOAEL at 14 days", "setting": "in vivo", "result": 1000, "unit": "mg/kg/day"}]}
